Values of other authors, collected in patent US9624424B2, “Large stokes shift dyes” (LIFE TECHNOLOGIES CORPORATION, priority 2009, dated 2017).

Row | extinction coefficient around 605 nm (commercial dyes emitting at 750-800 nm) | Compound
1 | ~15,000 M^−1cm^−1 | CCN1c2cc3c(cc2C(C)=CC1(C)C)C(=CC=CC=CC1=[N+](CCCCCC(=O)O)c2ccc(S(=O)(=O)[O-])cc2C1(C)C)C=C(C(C)(C)C)O3 [Dy750]
2 | ~15,000 M^−1cm^−1 | CCN1C(=CC=CC=CC=CC2=[N+](CCCCCC(=O)O)c3ccc(S(=O)(=O)O)cc3C2(C)C)C(C)(C)c2cc(S(=O)(=O)[O-])ccc21 [Cy7]
3 | ~15,000 M^−1cm^−1 | CC(C)(C)c1cc(/C=C/C=C/C=C2/N(CCCS(=O)(=O)[O-])c3ccc(S(=O)(=O)[O-])cc3C2(C)CCCC(=O)O)c2ccc(=[N+](CCCS(=O)(=O)[O-])CCCS(=O)(=O)[O-])cc-2o1.[Na+].[Na+].[Na+] (stereo not shown) [Dy734]
4 | ~15,000 M^−1cm^−1 | AlexaFluor 750 [AF750]
